Patent US8383111B2, “Inotropic antibodies and therapeutic uses thereof” (priority 2002, dated 2013)
“Also recorded” adds a separate entry of the source. Where two headings read alike, the source gives them in different places.

Key:
[1] = test system: (Na^++K^+)-ATPase; assay: Immunofluorescent staining of antibody in rat cardiac myocytes and CV-1 cells; assay type: binding, rat; African green monkey; details: for competition with the Jianye-2 antibody binding site (Jianye-2 antibody staining in presence of competitor): 1 mM ouabain or strophanthidin
Description: FIG. 1 (which includes FIGS. 1A through 1F) are photographs showing the immunofluorescent staining of Jianye-2 antibody in rat cardiac myocytes and African green monkey CV-1 cells, FIGS. 1A-1B are photographs of the confocal image of rat cardiac myocytes in the presence of Jianye-2 (FIG. 1A) or with both Jianye-2 antibody and peptide blocker (FIG. 1B). […] FIG. 1D is a photograph of a single CV-1 cell image at 3000× FIGS. 1E-1F are photographs showing Jianye-2 antibody staining in the presence of either 1 mM ouabain (FIG. 1E) or strophanthidin (FIG. 1F).
Confocal image of rat cardiac myocytes in the presence of Jianye-2, shown in FIG. 1A or with both Jianye-2 antibody and peptide blocker (FIG. 1B). […] Jianye-2 antibody staining in the presence of either 1 mM ouabain (FIG. 1E) or strophanthidin (FIG. 1F). […] Time runs from left to right. […] Columns B, C, D show the results obtained 10, 20, 30 min after administration of either buffer (upper panel) or Jianye-2 antibody (lower panel, 85 nM). Enzyme activity was monitored in cell homogenates under the same experimental condition. […] The data represent a mean of 12 independent experiments. […] The data represent a mean of four independent experiments.

[2] = test system: heart failure rats; assay: Immunization with KX-1 peptide vaccine in heart failure rat model (echocardiography); assay type: in vivo; details: peptide injected as vaccine, TiterMax Gold adjuvant, vs control heart failure rat without immunization
Experimental: FIG. 9 is a graph showing the effect of immunization with KX-1 on the rat cardiac heart failure function. The peptide DVEDSYGQQWTYEQR (SEQ ID NO: 2) was injected into the animal as a vaccine to reduce the rate of progression of heart failure in the heart failure rat model. TiterMax Gold was used as an adjuvant throughout the experiment.
Echocardiography (Echo) uses sound waves to form a picture of the heart valves and heart muscle. The Echo machine sends sound waves to a transducer (a sound sensitive instrument) that is placed on the animal's chest. The sound waves are reflected by the heart was (muscle) and heart valves and back to the transducer, which changes the sound into a picture. Gel is applied on the rat chest and a transducer is placed over the heart area. Heart structures are examined by changing the direction of the transducer. The sound waves cause no discomfort. Thus, an Echo detects the changes and provides information about heart chamber size, wall motion, valve movements, and structural changes in and around the heart.

[3] = test system: rat cardiac myocytes; assay: Measurement of intracellular Ca2+ transients; assay type: cell-based; details: rat heart cells; mean of 12 independent experiments
Experimental: Rat cardiac myocytes were loaded with 50 µg of a cell permeable fluorescent Ca.2+ probe, Indo-1/acetoxymethyl-ester (Indo-1/AM, Molecular Probes, Inc., Eugene, Oreg.) for 10 min and then resuspended in HEPES-buffered solution in the presence of 1 mM Ca.2+ and stored in the dark at room temperature for 60 min before be utilized for the experiments. The Indo-1 loaded cells were placed on the stage of a modified inverted microscope (model IM-35; Carl Zeiss, Inc., Thornwood, N.Y.) equipped for simultaneous recording of Indo-1 fluorescence and cell length. Cells were electrically paced at 0.5 Hz at room temperature and the excitation wavelength was selected by a 350-nm interference filter (bandwidth 10 nm; Oriel Corp., Stratford, Conn.). The ratio of emission intensity at 410 nm to that at 490 nm was computed offline as an index of intracellular Ca.2+ (Cai^2+) transient. The peak amplitude of the transient is defined as the difference of the 410:490 fluorescence ratio before and after electrical stimulation with or without antibody.

[4] = test system: rat ventricular myocytes; assay: Measurement of cell contraction in isolated rat ventricular myocytes; assay type: cell-based
Experimental: Ventricular cardiac myocytes were isolated from adult Sprague-Dawley rats (2-3 months old; weight 225-300 g) using standard enzymatic techniques. Briefly, following anesthesia (sodium pentobarbital, 100 mg/kg), the heart was quickly removed from the chest and aortic perfused at constant pressure (100 cmH2O) at 37° C. for 3 minutes with a Ca^2+-free bicarbonate-based buffer containing 120 mM NaCl, 5.4 mM MgSO4, 1.2 mM NaH2PO4, 5.6 mM glucose, 20 mM NaHCO3, and 5 mM taurine, in the presence of O2 (95%)-CO2 (5%). The enzymatic digestion was initiated by adding collagenase (Worthington Type II, 1 mg/ml) to the perfusion solution. Calcium (50 µM) was added to the enzyme solution when the heart became swollen. About 7 minutes later, the left ventricle was quickly removed, cut into several pieces, and further digested on a shaker (60-70 rpm) for 10 minutes in the same enzyme solution. The supernatant containing the dispersed myocytes was filtered into a test tube and gently centrifuged at 500 rpm for 1 minute. […]
Cardiac myocytes were isolated from wild-type adult Sprague-Dawley rats, using a standard enzymatic method described previously (Xu, K. Y., et al., (2002) BBRC, 289:167-172). […] Cell length was monitored from the bright-field image (650 nm to 750 nm red light illumination) by an optical edge-tracking method using a photodiode array (model 1024 SAQ, Reticon) with a 3-ms time resolution. […]

[5] = test system: mouse heart left ventricle; assay: Measurement of mice cardiac contraction in vivo (pressure-volume catheter)
Experimental: Male wild-type mice (CD1, Charles River, 32-40 g) were utilized for this study. Mice In vivo cardiac functions were assessed by pressure-volume catheter in anesthetized mice. Briefly, mice were induced with 5% isofluorane, anesthetized with an intraperitoneal injection of urethane (300-500 mg/kg), etomidate (5 mg/kg) and morphine (0.5 mg kg-1), and intubated with a blunt 19 G needle inserted via tracheostomy. […] Ventilation was initiated with 100% oxygen using a custom-designed, constant flow ventilator delivering a tidal volume of […] at 120 breaths per min. The left external jugular vein was cannulated with a 30 G needle connected to an infusion pump. Modest volume expansion was provided (150 µL of 12.5% human albumin) at 50 µL/min. Following stabilization, a lateral incision was made at the xyphoid cartilage to expose the left ventricular (LV) apex. The 1.4F pressure-volume catheter (SPR-839, Millar Instruments Inc., Houston, Tex., USA) was inserted via an apical needle puncture with a 26 G needle, and advanced along the cardiac long axis. A 2F pacing catheter (NuMed, Nicholville, N.Y., USA) was placed in the esophagus, dorsal to the left atrium. Atrium was paced using 5-7 V, 2 ms pulses (SD25, Grass Instruments, Quincy, Mass., USA). Calibration of the volume signal was performed using a 5-10 µL bolus of 30% hypertonic saline injected into the jugular vein to determine the signal offset and ultrasound flow probe (AT01RB, Transonic Systems Inc.) placed around the thoracic aorta to determine signal gain. Data were digitized at 2 kHz and stored to disk for off line analysis.
Mice cardiac atria pacing were maintained at constant beating (600 beats/min). The hearts were infused with PBS (5 µl/min) for 10 min prior for administration of SSA78 infusion (5 µl/min) for 30 minutes and following by 10 min PBS washout at 5 µl/min. […] Steady-state indices were derived from 10 consecutive averaged beats. Cardiac preload was indexed as the left ventricular end-diastolic volume (EDV) and end-diastolic pressure (EDP). Cardiac afterload was evaluated as effective arterial elastance (Ea; ratio of LV systolic pressure to stroke volume). This parameter is not preload dependent and had been validated to closely approximate total afterload, which incorporates systemic vascular resistance, aortic impedance, and the reflected wave properties of the vasculature. Myocardial contractility was indexed by cardiac output (CO), dPdt max, dPdt max normalized to instantaneous developed pressure (dPdt max/IP), the load-independent end-systolic pressure-volume relationship (Ees) and preload recruitable stroke work (PRSW). Diastolic perform performance was measured by dPdt min and the time constant of ventricular relaxation.

[6] = target: T1, (Na^++K^+)-ATPase (Rattus norvegicus, UniProt P06685); assay: Determination of (Na^++K^+)-ATPase activity; assay type: biochemical; details: monitored in cell homogenates under the same experimental condition as contraction
T1 construct: Rat cardiac sarcolemmal (SL) vesicles were isolated from rat heart muscle by sucrose flotation method; from tissue; host or cells: rat heart muscle (sarcolemmal vesicles, SDS treatment and sucrose gradient)

C[C@@H]1O[C@@H](O[C@H]2C[C@@H](O)[C@]3(CO)[C@H]4[C@H](O)C[C@]5(C)[C@@H](C6=CC(=O)OC6)CC[C@]5(O)[C@@H]4CC[C@]3(O)C2)[C@H](O)[C@H](O)[C@H]1O [ouabain, reference compound]
competition with the Jianye-2 antibody binding site (Jianye-2 antibody staining in presence of competitor) [1]: compete with the Jianye-2 antibody binding site

C[C@]12CC[C@H]3[C@@H](CC[C@]4(O)C[C@@H](O)CC[C@]34C=O)[C@@]1(O)CC[C@@H]2C1=CC(=O)OC1 [strophanthidin, reference compound]
competition with the Jianye-2 antibody binding site (Jianye-2 antibody staining in presence of competitor) [1]: compete with the Jianye-2 antibody binding site

DVEDSYGQQWTYEQR [peptide of the H7-H8 domain of (Na++K+)-ATPase alpha-subunit, injected as vaccine to generate endogenous KX-1 antibody]
rate of progression of heart failure (cardiac function) [2]: significantly decreased the progression of heart failure; also recorded: significantly delayed the rate of the progression of heart failure

Jianye-2 antibody: polyclonal rabbit IgG recognizing the RSATEEEPPNDD (SEQ ID NO: 1) peptide (H1-H2 domain) of the alpha-subunit of (Na++K+)-ATPase
intracellular Ca2+ [3]: markedly increased
rat heart cell contraction (time course) ([4]; 85 nM antibody, 10, 20, 30 min after administration, vs buffer): enhanced rat heart cell contraction
EC50 ([4]; dose-dependent contractile response in rat ventricular myocytes, mean of four independent experiments, read-out: half maximal contractile response (EC50)): 35 nM
first order rate constant of increase in mouse heart contraction [5]: 1.06 %/min
first order rate constant of increase in mouse heart contraction ([5]; 3.4 µM antibody): 1.06 %/min
mouse heart contraction, percent of background control (0 min as 100%) ([5]; 3.4 µM antibody, 5 min): 108(.+−.5.3) %
mouse heart contraction, percent of background control (0 min as 100%) ([5]; 3.4 µM antibody, 10 min): 113(.+−.7) %
mouse heart contraction, percent of background control (0 min as 100%) ([5]; 3.4 µM antibody, 15 min): 116(.+−.10) %
mouse heart contraction, percent of background control (0 min as 100%) ([5]; 3.4 µM antibody, 20 min): 122(.+−.9.0) %
first order rate constant of increase in mouse heart contraction ([5]; 6.0 µM antibody): 2.16 %/min
mouse heart contraction, percent of background control (0 min as 100%) ([5]; 6.0 µM antibody, 5 min): 115(.+−.9.0) %
mouse heart contraction, percent of background control (0 min as 100%) ([5]; 6.0 µM antibody, 10 min): 127(.+−.21) %
mouse heart contraction, percent of background control (0 min as 100%) ([5]; 6.0 µM antibody, 15 min): 137(.+−.16) %
mouse heart contraction, percent of background control (0 min as 100%) ([5]; 6.0 µM antibody, 20 min): 143(.+−.30) %
first order rate constant of increase in mouse heart contraction ([5]; 6.0 mM antibody): 2.16 %/min
mouse heart contraction, percent of background control (0 min as 100%) ([5]; 6.0 mM antibody, 5 min): 115(.+−.9.0) %
mouse heart contraction, percent of background control (0 min as 100%) ([5]; 6.0 mM antibody, 10 min): 127(.+−.21) %
mouse heart contraction, percent of background control (0 min as 100%) ([5]; 6.0 mM antibody, 15 min): 137(.+−.16) %
mouse heart contraction, percent of background control (0 min as 100%) ([5]; 6.0 mM antibody, 20 min): 143(.+−.30) %
mouse heart contraction, percent of background control (0 min as 100%) ([5]; 5 min): 108(.+−.5.3) %
mouse heart contraction, percent of background control (0 min as 100%) ([5]; 10 min): 113(.+−.7) %
mouse heart contraction, percent of background control (0 min as 100%) ([5]; 15 min): 116(.+−.10) %
mouse heart contraction, percent of background control (0 min as 100%) ([5]; 20 min): 122(.+−.9.0) %
positive inotropic effect (ventricular pressure-volume loops) ([5]; normal mouse heart left ventricle, 6.0 µM in PBS, pH 7.2, total 150 ml at 5 ml/min): dramatically induced a reversible positive inotropic effect
binding to the (Na++K+)-ATPase on the surface of the cell membrane (immunofluorescent staining) ([1]; rat cardiac myocytes and African green monkey CV-1 cells): specifically binds; also recorded: binds to its antigenic site
(Na++K+)-ATPase activity [6]: without inhibiting
